Values joined by “and” are separate entries in the source; they are usually repeats but may differ in a detail not shown here. Equal values may be shown once.
Columns and labels:
Experiment in all cases: Enzyme Assay
CDK2 [1] = biological target: CDK2 (UniProt P24941)
CDK2 [2] = biological target: CDK2 (UniProt P24941); remark: listed apart in the source
CDK2 [3] = biological target: CDK2 (UniProt P24941); remark: listed apart in the source

SMILES	IC50 (CDK2 [1])	IC50 (CDK2 [2]) [nM]	IC50 (CDK2 [3])
O=c1ccc2cnc(Nc3ccc(N4CCCCC4)cc3)nc2n1CCCOC1CCCCO1 (configuration not stated)	1900 nM	284	
CCCn1c(=O)ccc2cnc(Nc3cc(OC)c(OC)c(OC)c3)nc21	1650 nM		
COc1ccc(Nc2ncc3ccc(=O)n(C(C)C)c3n2)cc1	540 nM	392	
CCC(CC)n1c(=O)ccc2cnc(Nc3cccc(C(F)(F)F)c3)nc21	600 nM		131 nM
CCCn1c(=O)ccc2cnc(N(C)c3ccc(O)c(N4CCOCC4)c3)nc21	1100 nM		680 nM
CCCn1c(=O)ccc2cnc(Nc3ccc(I)c(Cl)c3)nc21	820 nM		180 nM
CCCn1c(=O)ccc2cnc(Nc3ccc(OC)c(O)c3)nc21	960 nM and 1100 nM		240 nM and 670 nM
CCCCn1c(=O)ccc2cnc(Nc3cc(Cl)cc(Cl)c3)nc21	3780 nM		
CCCn1c(=O)ccc2cnc(Nc3ccc(NC(=O)OC(C)(C)C)cc3)nc21	2450 nM		820 nM

Other lines, results leading:

IC50 (CDK2 [1])	IC50 (CDK2 [2]) [nM]	IC50 (CDK2 [3])	SMILES
155 nM			CCC(CC)n1c(=O)ccc2cnc(Nc3ccc(F)c(C)c3)nc21
44 nM			O=c1ccc2cnc(Nc3ccc(N4CCCC(O)C4)cc3)nc2n1C1CCCC1 (configuration not stated)
140 nM			CC(C)n1c(=O)ccc2cnc(Nc3ccc(F)c(Cl)c3)nc21
350 nM		220 nM	Cc1cc(Nc2ncc3ccc(=O)n(C(C)C)c3n2)ccc1Cl
87 nM	35.7		O=c1ccc2cnc(Nc3ccc(-n4cccn4)cc3)nc2n1C1CCCC1
220 nM		150 nM	O=c1ccc2cnc(Nc3ccc(Br)c(C(F)(F)F)c3)nc2n1C1CCCC1
10000 nM	275		O=c1ccc2cnc(Nc3cccc(OC(F)(F)C(F)F)c3)nc2n1C1CC2CCC1C2 (configuration not stated)
330 nM		470 nM	O=c1ccc2cnc(Nc3c(F)cc(F)cc3F)nc2n1C1CCCC1
75 nM		35 nM	COc1ccc(Nc2ncc3ccc(=O)n(C4CCCC4)c3n2)cc1F
30 nM	14.2		O=c1ccc2cnc(Nc3ccc(N4CCC(CCO)CC4)cc3)nc2n1C1CCCCC1
260 nM		200 nM	O=c1ccc2cnc(Nc3ccc4cn[nH]c4c3)nc2n1CC1CC1
193 nM	66.8		O=c1ccc2cnc(Nc3ccc(N4CCCCC4)cc3)nc2n1C1CCCCC1

From the Kinase Knowledgebase extract (Sharma et al. 2016)
